Measured values from US6608086B2, “Dihydropyridines and new uses thereof” (Synaptic Pharmaceutical Corporation, priority 1993, dated 2003).
Read-outs that look alike come from different tables or passages of the source.

Tests used:
α2B receptor = target: T1, α2B receptor (Homo sapiens, UniProt P18089); test: Competition binding, [3H]rauwolscine, human α2B receptor
T1 construct: host or cells: LM(tk-) cells, line L-NGC-α2B
T1 sequence (P18089 1-450): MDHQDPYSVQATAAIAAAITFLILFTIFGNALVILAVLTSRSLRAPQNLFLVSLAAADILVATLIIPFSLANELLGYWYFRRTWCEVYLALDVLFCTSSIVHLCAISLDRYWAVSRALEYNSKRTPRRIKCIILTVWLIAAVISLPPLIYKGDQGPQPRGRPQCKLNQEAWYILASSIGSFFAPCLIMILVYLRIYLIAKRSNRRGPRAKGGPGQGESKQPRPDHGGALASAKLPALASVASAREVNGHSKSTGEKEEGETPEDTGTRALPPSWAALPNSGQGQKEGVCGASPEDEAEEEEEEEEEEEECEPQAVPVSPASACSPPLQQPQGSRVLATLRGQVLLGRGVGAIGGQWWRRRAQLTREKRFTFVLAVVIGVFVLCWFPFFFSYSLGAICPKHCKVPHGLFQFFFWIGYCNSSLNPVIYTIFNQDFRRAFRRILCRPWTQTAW
Summary of the method: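 Using 25 mM glycylglycine buffer at pH 7.6 (room temperature), membranes from LM(tk−) cells carrying α2A, α2B or α2C were competed against 0.5 nM [3H]rauwolscine to equilibrium. Separation was by GF/B filtration; phentolamine (10 μM) set nonspecific binding.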

[1] = pKi alpha-2 2b, [3H]rauwolscine, LM(tk-) cell line L-NGC-α2B, SEM and n in lines below
[2] = [3H]rauwolscine, LM(tk-) cell line L-NGC-α2B, SEM and n in lines below, read-out: pKi alpha-2 2b (converted)

Row | Compound | Ki (α2B receptor; [1]) | melting point | Ki (α2B receptor; pKi alpha-2 2b) | Ki (α2B receptor; [2]) | Ki (α2B receptor; pKi alpha-2 2b, [3H]rauwolscine, human α2B receptor, LM(tk−) cells)
1 | COC(=O)C1=C(C)NC(C)=C(C(=O)NCCCN2CCC(c3ccccc3)(c3ccccc3)CC2)C1Cc1ccccc1 (stereo not drawn) [Example 8, 4-Benzyl-1,4-dihydro-3-methoxycarbonyl-2,6-dimethyl-5-(N-(3-(4,4-diphenylpiperidin-1-yl)propyl)carboxamido)pyridine] | 1860 nM | 175 to 177 °C | – | – | –
2 | COC(=O)C1=C(C)NC(C)=C(C(=O)NCCCN2CCC(c3ccccc3)(c3ccccc3)CC2)C1c1cc[n+]([O-])cc1 (stereo not drawn) [Example 9, 1,4-Dihydro-3-methoxycarbonyl-2,6-Dimethyl-4-(1-oxido-4-pyridyl)-5-(N-(3-(4,4-diphenylpiperidin-1-yl)propyl)carboxamido)pyridine] | 550 nM | 206 to 209 °C (dec.) | – | – | –
3 | COC(=O)C1=C(C)NC(C)=C(C(=O)NCCCN2CCC(c3ccccc3)(c3ccccc3)CC2)C1c1ccc(Cl)cc1 (stereo not drawn) [Example 10, 4-(4-Chlorophenyl)-1,4-dihydro-5-methoxycarbonyl-2,6-Dimethyl-5-(N-(3-(4,4-diphenylpiperidin-1-yl)propyl)carboxamido)pyridine] | – | 240 to 242 °C | 3310 nM | – | –
4 | COC(=O)C1=C(C)NC(C)=C(C(=O)NCCCN2CCC(c3ccccc3)(c3ccccc3)CC2)C1c1ccc2c(c1)OCO2 (stereo not drawn) [Example 11, 1,4-Dihydro-3-methoxycarbonyl-2,6-dimethyl-4-(3,4-methylenedioxyphenyl)-5-(N-(3-(4,4-diphenylpiperidin-1-yl)propyl)carboxamido)pyridine] | – | 197 to 200 °C | 871 nM | – | –
5 | COC(=O)C1=C(C)NC(C)=C(C(=O)NCCCN2CCC(c3ccccc3)(c3ccccc3)CC2)C1c1ccc(C#N)cc1 (stereo not drawn) [Example 12, 4-(4-Cyanophenyl)-1,4-dihydro-3-methoxycarbonyl-2,6-dimethyl-5-(N-(3-(4,4-diphenylpiperidin-1-yl)propyl)carboxamido)pyridine] | – | 115 to 118 °C | 1260 nM | – | –
6 | COC(=O)C1=C(C)NC(C)=C(C(=O)NCCCN2CCC(c3ccccc3)(c3ccccc3)CC2)C1c1ccc(I)cc1 (stereo not drawn) [Example 13, 1,4-Dihydro-4-(4-iodophenyl)-3-methoxycarbonyl-2,6-dimethyl-5-(N-(3-(4,4-diphenylpiperidin-1-yl)propyl)carboxamido)pyridine] | – | 228 to 230 °C (dec.) | 1740 nM | – | –
7 | COC(=O)C1=C(C)NC(C)=C(C(=O)NCCCN2CCC(c3ccccc3)(c3ccccc3)CC2)C1c1cccnc1 (stereo not drawn) [Example 14, 1,4-Dihydro-3-methoxycarbonyl-2.6-dimethyl-5-(N-(3-(4,4-diphenylpiperidin-1-yl)propyl)carboxamido)-4-(3-pyridyl)pyridine] | 1350 nM | 244 to 247 °C (dec.) | – | – | –
8 | COC(=O)C1=C(C)NC(C)=C(C(=O)NCCCN2CCC(c3ccccc3)(c3ccccc3)CC2)C1c1ccc(Br)cc1 (stereo not drawn) [Example 15, 4-(4-Bromophenyl)-1,4-dihydro-3-methoxycarbonyl-2,6-dimethyl-5-(N-(3-(4,4-diphenylpiperidin-1-yl)propyl)carboxamido)pyridine] | – | 244 to 247 °C (dec.) | 3390 nM | – | –
9 | COC(=O)C1=C(C)NC(C)=C(C(=O)NCCCN2CCC(c3ccccc3)(c3ccccc3)CC2)C1c1ccc(Cl)c([N+](=O)[O-])c1 (stereo not drawn) [Example 16, 4-(4-Chloro-3-nitrophenyl)-1,4-dihydro-3-methoxycarbonyl-2,6-dimethyl-5-(N-(3-(4,4-diphenylpiperidin-1-yl)propyl)carboxamido)pyridine] | – | 178 to 181 °C | 1820 nM | – | –
10 | COC(=O)C1=C(C)NC(C)=C(C(=O)NCCCN2CCC(c3ccccc3)(c3ccccc3)CC2)C1c1ccc(C(C)C)cc1 (stereo not drawn) [Example 18, 1,4-Dihydro-4-(4-isopropylphenyl)-3-methoxycarbonyl-2,6-dimethyl-5-(N-(3-(4,4-diphenylpiperidin-1-yl)propyl)carboxamido)pyridine] | – | 163 to 163.5 °C | 1620 nM | – | –
11 | COC(=O)C1=C(C)NC(C)=C(C(=O)NCCCN2CCC(c3ccccc3)(c3ccccc3)CC2)C1c1ccc(C)cc1 (stereo not drawn) [Example 19, 1,4-Dihydro-3-methoxycarbonyl-1,6-dimethyl-4-(4-methylphenyl)-5-(N-(3-(4,4-diphenylpiperidin-1-yl)propyl)carboxamido)pyridine] | – | 234 to 235 °C | 912 nM | – | –
12 | COC(=O)C1=C(C)NC(C)=C(C(=O)NCCCN2CCC(c3ccccc3)(c3ccccc3)CC2)C1c1ccc(F)cc1 (stereo not drawn) [Example 20, 4-(4-Fluorophenyl)-1,4-dihydro-3-methoxycarbonyl-2,6-dimethyl-5-(N-(3-(4,4-diphenylpiperidin-1-yl)propyl)carboxamido)pyridine] | – | 251 to 251.5 °C | 1320 nM | – | –
13 | COC(=O)C1=C(C)NC(C)=C(C(=O)NCCCN2CCC(c3ccccc3)(c3ccccc3)CC2)C1c1ccc(OC)cc1 (stereo not drawn) [Example 21, 1,4-Dihydro-3-methoxycarbonyl-4-(4-Methoxyphenyl)-2,6-dimethyl-5-(N-(3-(4,4-diphenylpiperidin-1-yl)propyl)carboxamido)pyridine] | – | 212 to 213 °C | 1070 nM | – | –
14 | COC(=O)C1=C(C)NC(C)=C(C(=O)NCCCN2CCC(c3ccccc3)(c3ccccc3)CC2)C1c1ccoc1 (stereo not drawn) [Example 23, 4-(3-Furyl)-1,4-dihydro-3-methoxycarbonyl-2,6-dimethyl-5-(N-(3-(4,4-diphenylpiperidin-1-yl)propyl)carboxamide)pyridine] | 562 nM | 225 to 226 °C | – | – | –
15 | COC(=O)C1=C(C)NC(C)=C(C(=O)NCCCN2CCC(c3ccccc3)(c3ccccc3)CC2)C1c1ccc(Cl)c(Cl)c1 (stereo not drawn) [Example 24, 4-(3,4-Dichlorophenyl)-1,4-dihydro-3-methoxycarbonyl-2,6-dimethyl-5-(3-(D 44-diphenylpiperidin-1-yl)propylcarboxamido)pyridine] | – | 177 to 178 °C | 1260 nM | – | –
16 | COC(=O)C1=C(C)NC(C)=C(C(=O)NCCCN2CCC(c3ccccc3)(c3ccccc3)CC2)C1c1ccc(C(=O)OC)cc1 (stereo not drawn) [Example 25, 1,4-Dihydro-3-methoxycarbonyl-4-(4-methoxycarbonylphenyl)-2,6-dimethyl-5-(N-(3-(4,4-diphenylpiperidin-1-yl)propyl)carboxamide)pyridine] | – | 175.5 to 176 °C | 501 nM | – | –
17 | COC(=O)C1=C(C)NC(C)=C(C(=O)NCCCN2CCC(c3ccccc3)(c3ccccc3)CC2)C1c1ccc(OC)c(OC)c1 (stereo not drawn) [Example 26] | – | 180 to 181 °C | 977 nM | – | –
18 | COC(=O)C1=C(C)NC(C)=C(C(=O)NCCCN2CCC(c3ccccc3)(c3ccccc3)CC2)C1c1cc(OC)c(OC)c(OC)c1 (stereo not drawn) [Example 27] | – | 187 to 188 °C | 1050 nM | – | –
19 | COC(=O)C1=C(C)NC(C)=C(C(=O)NCCCN2CCC(c3ccccc3)(c3ccccc3)CC2)C1c1ccc([N+](=O)[O-])c(OC)c1 (stereo not drawn) [Example 29, 1,4-Dihydro-3-methoxycarbonyl-4-(3-methoxy-4-nitrophenyl)-2,6-dimethyl-5-(N-(3-(4,4-diphenylpiperidin-1-yl)propyl)carboxamido)pyridine] | – | 211 to 213 °C | – | 631 nM | –
20 | CC1=C(C(=O)NCCCN2CCC(c3ccccc3)(c3ccccc3)CC2)C(c2ccc([N+](=O)[O-])cc2)C2=C(CCCC2=O)N1 (stereo not drawn) [Example 40, 1,4,5,6,7,8-Hexahydro-2-methyl-4-(4-nitrophenyl)-5-oxo-3-{N-[3-(4,4-diphenylpiperidin-1-yl)propyl]}carboxamidoquinoline] | 1780 nM | 143 to 146 °C | – | – | –
21 | CCC1=C(C(N)=O)C(c2ccc([N+](=O)[O-])cc2)C(C(=O)NCCCN2CCC(c3ccccc3)(c3ccccc3)CC2)=C(C)N1 (stereo not drawn) [Example 41, 3-Carboxamido-2-ethyl-1,4-dihydro-6-methyl-4-(4-nitrophenyl)-3-{N-[3-(4,4-diphenylpiperidin-1-yl)propyl]}carboxamidopyridine] | 603 nM | 120 to 124 °C | – | – | –
22 | CC1=C(C(N)=O)C(c2cccc([N+](=O)[O-])c2)C(C(=O)NCCCN2CCC(c3ccccc3)(c3ccccc3)CC2)=C(C)N1 (stereo not drawn) [Example 61, 5-Carboxamido-1,4-dihydro-2,6-dimethyl-4-(3-nitrophenyl)-3-{N-[3-(4,4-diphenylpiperidin-1-yl)propyl]}carboxamidopyridine] | – | 144 to 148 °C | – | 603 nM | –
23 | CC1=C(C(=O)NCCCN2CCC(c3ccccc3)(c3ccccc3)CC2)C(c2ccc([N+](=O)[O-])cc2)c2c([nH]c(=O)[nH]c2=O)N1 (stereo not drawn) [Example 64] | 437 nM | 184 to 186 °C | – | – | –
24 | CCC1=C(C(=O)NCCCN2CCC(c3ccccc3)(c3ccccc3)CC2)C(c2cccc(OC)c2)C(C(=O)NCCCN2CCC(c3ccccc3)(c3ccccc3)CC2)=C(CC)N1 [Example 112, 2,6-Diethyl-1,4-dihydro-4-(3-methoxyphenyl)-3,5-bis(N-(3-(4,4-diphenylpiperidin-1-yl)propyl)carboxamido)-pyridine] | – | 166 to 170 °C | – | – | 447 nM
